Experimental data as given in patent US11147805B2, “Cannabinoid receptor agonists and serine hydrolase enzyme inhibitor based anxiolytic therapeutic product” (Medipure Pharmaceuticals Inc., priority 2019, dated 2021).

Experiments:
Swiss albino mice [1] = experiment: Dose-response study: locomotor activity in the open field; format: in vivo; settings: 7 days repeated, tested 8th day, tracked 60 min, vs vehicle
Method: The effect of CBD, KML29, and JZL184 on locomotor activity in the open field experiment was evaluated using Swiss albino mice.
A total of 88 male Swiss albino mice (˜30-45 g; 7-9 weeks old) were selected and body weights were recorded. Animals were administered respective treatments (n=8) as per the group allocation repeatedly for 7 days. On the day of testing (8th day), animals were brought to the laboratory 1 h prior to acclimatize to the laboratory conditions. Mice were habituated to the arenas for a period of 30 min. Respective treatments were intraperitoneally administered (vehicle (10 mL/kg) or Diazepam (1 mg/kg) or CBD (1, 10 and 100 mg/kg) or KML29 (3, 10 and 30 mg/kg) or JZL184 (3, 10 and 30 mg/kg)) immediately post habituation. After treatment animals were placed in the open field and distance traveled by mice was tracked for 60 min. Data obtained was analyzed by Student's ‘t’-test or Two-way repeated measures ANOVA followed by Bonferroni's posthoc tests by using the Graph pad prism software package (Version 7.0) and a p-value below 0.05 was considered as significant.

healthy volunteers = settings: chronic administration, even large acute doses of 700 mg/day; cited from earlier work
human subjects = human subjects submitted to SPST; cited from earlier work
Swiss albino mice [2] = experiment: Anxiolytic effects of formulation: locomotor activity in open field, combinations vs diazepam; format: in vivo; settings: 1 mg/kg, i.p.; tested 8th day, tracked 60 min; vs vehicle
Method: The effect of CBD, KML29, and JZL184 on locomotor activity in open field was evaluated using Swiss albino mice and compared with diazepam.
A total of 48 male Swiss albino mice (˜30-45 g; 7-9 weeks old) were selected and body weights were recorded. Animals were brought to the laboratory 1 h prior to acclimatize to the laboratory conditions. The open field is a black colored arena of 51×51×51 cm enclosed by black plastic walls of same dimensions. Animals were given respective intraperitoneal treatments as per the group allocation (n=8) repeatedly for 7 days. On the day of testing (8th day), mice were habituated to the arenas for a period of 30 min. […] Data obtained was analyzed by Student's ‘t’-test or Two-way repeated measures ANOVA followed by Bonferroni's posthoc tests by using the GraphPad prism software package (Version 7.02) and p-value below 0.05 was considered as significant.
Preparation of formulations: Diazepam was dissolved with sufficient volume of 5% pharmasolve and 95% of 30% w/v captisol to get the concentration of 0.10 mg/mL and was intended for intraperitoneal administration of 1 mg/kg dose at 10 mL/kg dose volume. CBD was dissolved in a calculated volume of DMSO to get the concentration of 20 mg/mL (Stock solution). […] KML29 was dissolved in a calculated volume of DMSO to get the concentration of 50 mg/mL (Stock solution). […]

## O=C(N1CCC(=C2c3ccc(Cl)cc3CCc3cccnc32)CC1)n1cncn1 [KML29, [4-(8-Chloro-5,6-dihydro-11H-benzo[5,6]cyclohepta[1,2-b]pyridin-11-ylidene)-1-piperidinyl](1H-1,2,4-triazol-1-yl)methanone]
Swiss albino mice [1]; 30 mg/kg, i.p.
  locomotion (distance traveled in open field): decreased the locomotion and attained significance

## C=C(C)[C@@H]1CCC(C)=C[C@H]1c1c(O)cc(CCCCC)cc1O [CBD, cannabidiol]
Swiss albino mice [1]; 100 mg/kg, i.p.
  locomotion (distance traveled in open field): significantly decreased the locomotion
Healthy volunteers
  toxicity or serious side effects: No signs of toxicity or serious side effects
Human subjects
  anxiolytic effect: anxiolytic effects

## O=C(Oc1ccc([N+](=O)[O-])cc1)N1CCC(C(O)(c2ccc3c(c2)OCO3)c2ccc3c(c2)OCO3)CC1 [JZL184, 4-nitrophenyl-4-[bis(1,3-benzodioxol-5yl)(hydroxy)methyl]piperidine-1-carboxylate]
Swiss albino mice [1]; 3, 10 and 30 mg/kg i.p.
  locomotion (distance traveled in open field): decreased the locomotion in a dose-dependent manner but the effect did not reach statistical significance

## CN1C(=O)CN=C(c2ccccc2)c2cc(Cl)ccc21 [Diazepam, diazepam]
Swiss albino mice [1]; 1 mg/kg, i.p.
  locomotion (distance traveled in open field): significantly decreased the locomotion
Swiss albino mice [2]
  locomotion (distance traveled in open field): significantly decreased the locomotion
